Like-named read-outs stand apart in the source and are kept apart here.
How the values were obtained:
CEM cells = assay: Cytostatic assay, CEM; format: cell-based; details: Homo sapiens, CCRF-CEM
In short: (§1)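 A density of 5-7.5×10^4 cells per well is treated with compound. Incubation lasts 48 h to 96 h according to cell type, in humidified, CO2-controlled conditions at 37° C, after which cells are enumerated electronically.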

Molt4/C8 cells = assay: Cytostatic assay, Molt4/C8; format: cell-based; details: Table 2
Procedure: (§2) To each well of a 96-well microtiter plate were added 5-7.5×10^4 cells and a given amount of the test compound. The cells were allowed to proliferate for 48 h to 96 h (depending on the nature of the cell line) at 37° C. in a humidified CO2-controlled atmosphere. At the end of the incubation period, the cells were counted in a Coulter Counter (Coulter Electronics Ltd, Harpenden Herts, United Kingdom).

Sup T1 cells = assay: Cytostatic assay, Sup T1; format: cell-based; details: Homo sapiens, Table 2, read-out: Cytostatic activity (μM) Sup T 1
Procedure: as §2

MT-2 cells = assay: Cytostatic assay, MT-2; format: cell-based; details: Homo sapiens, MT2; Table 2
Procedure: as §2

C8166 cells = assay: Cytostatic assay, C8166; format: cell-based; details: Homo sapiens, Table 2
Procedure: as §2

HUT-78 cells = assay: Cytostatic assay, HUT-78; format: cell-based; details: Homo sapiens, HuT78; Table 2
Procedure: as §2

MT-4 cells = assay: Cytostatic assay, MT-4; format: cell-based; details: Homo sapiens, MT4; Table 2
Procedure: as §2

[1] = system: HL60, human leukemia cells; assay: Cytostatic assay, HL-60; format: cell-based; details: Table 2
Procedure: as §2

[2] = system: U937, human monocytic cells; assay: Cytostatic assay, U937; format: cell-based; details: U-937, Table 2
Procedure: as §2

[3] = system: THP-1, human monocytic cells; assay: Cytostatic assay, THP-1; format: cell-based; details: Table 2
Procedure: as §2

[4] = system: Raji, human B-lymphoma cells; assay: Cytostatic assay, Raji; format: cell-based; details: Table 2
Procedure: as §2

L1210 cells = assay: Cytostatic assay, L1210; format: cell-based; details: Mus musculus, Table 2
Procedure: as §2

[5] = system: MCF-7 mammary carcinoma cells; assay: Cytostatic assay, MCF-7; format: cell-based; details: Homo sapiens, MCF7; Table 3
Procedure: as §2

[6] = system: FM3A mammary carcinoma cells; assay: Cytostatic assay, FM3A; format: cell-based, murine; details: Mus musculus, Table 3
Procedure: as §2

[7] = system: HeLa cervix carcinoma cells; assay: Cytostatic assay, HeLa; format: cell-based, human; details: Homo sapiens; Table 3; read-out: Cytostatic activity (μM) Hela
In short: as §1

[8] = system: Caki-1 kidney carcinoma cells; assay: Cytostatic assay, Caki-1; format: cell-based; details: Homo sapiens, Table 3
Procedure: as §2

[9] = system: Caki-2 kidney carcinoma cells; assay: Cytostatic assay, Caki-2; format: cell-based; details: Homo sapiens, Table 3
Procedure: as §2

[10] = system: 293T embryonic kidney cells; assay: Cytostatic assay, 293T; format: cell-based; details: Homo sapiens, HEK-293T; Table 3
Procedure: as §2

[11] = system: HT29 colorectal carcinoma cells; assay: Cytostatic assay, HT29; format: cell-based; details: Homo sapiens, HT-29; Table 3
Procedure: as §2

U87 glioma cells = assay: Cytostatic assay, U87; format: cell-based; details: Homo sapiens, U-87 MG; Table 3
Procedure: as §2

[12] = system: HEL embryonic lung fibroblast cells; assay: Cytostatic assay, HEL; format: cell-based; details: Homo sapiens, Table 3
Procedure: as §2

[13] = system: BAEC aortic endothelial cells; assay: Cytostatic assay, BAEC; format: cell-based, bovine; details: Bos taurus, Table 3
Procedure: as §2

[14] = system: PC3 (rega) prostate cancer cells; assay: Cytostatic assay, PC3 (rega); format: cell-based; details: Table 4
Procedure: as §2

BPH-1 (UZ) = assay: Cytostatic assay, BPH-1 (UZ); format: cell-based; details: Homo sapiens, Table 4
Procedure: as §2

[15] = system: DU145 (UZ) prostate cancer cells; assay: Cytostatic assay, DU145 (UZ); format: cell-based; details: Homo sapiens, DU-145; Table 4
Procedure: as §2

[16] = system: PC-3 (UZ) prostate cancer cells; assay: Cytostatic assay, PC-3 (UZ); format: cell-based; details: Table 4
Procedure: as §2

[17] = system: LNCaP (UZ) prostate cancer cells; assay: Cytostatic assay, LNCaP (UZ); format: cell-based; details: Homo sapiens, Table 4
Procedure: as §2

[18] = system: PNT1A (UZ) prostate cells; assay: Cytostatic assay, PNT1A (UZ); format: cell-based; details: Homo sapiens, Table 4
Procedure: as §2

[19] = system: 22Rv1 (UZ) prostate cancer cells; assay: Cytostatic assay, 22Rv1 (UZ); format: cell-based; details: Homo sapiens, Table 4
Procedure: as §2

PLC/PRF/5 hepatoma cells = assay: Cytostatic assay, PLC/PRF/5; format: cell-based; details: Homo sapiens, Table 4
Procedure: as §2

HepG2C3A hepatoma cells = assay: Cytostatic assay, HepG2C3A; format: cell-based; details: Homo sapiens, HepG2/C3A; Table 4
Procedure: as §2

Huh-7 hepatoma cells = assay: Cytostatic assay, Huh-7; format: cell-based; details: Homo sapiens, Table 4
Procedure: as §2

[20] = system: DNA synthesis in CEM cells; assay: Antimetabolic activity assay, [CH3-3H]dThd incorporation (DNA synthesis), CEM; format: cell-based; details: Homo sapiens, CCRF-CEM, incorporation into TCA-insoluble material
Procedure: (§3) Radiolabeled precursors of DNA synthesis ([^3H-methyl]dThd), RNA synthesis ([5-^3H]Urd), and protein synthesis ([4,5-^3H]leu) were added to 10^5 CEM cell cultures in the 200 μl-wells of a microtiter plate at 1 μCi for each precursor in the presence of varying concentrations of the test compounds (5-fold dilution series). The cells were allowed to proliferate for 20 hrs at 37° C. in a humidified, CO2-controlled atmosphere. At the end of the incubation period, the contents of the wells were brought onto 25-mm glass fiber filters and further processed for measurement of acid-insoluble radioactivity.

[21] = system: DNA synthesis in Raji cells; assay: Antimetabolic activity assay, [CH3-3H]dThd incorporation (DNA synthesis), Raji; format: cell-based; details: Homo sapiens, incorporation into TCA-insoluble material
Procedure: [The procedure below names another cell line; the source lists this cell line under the same test.] as §3

[22] = system: RNA synthesis in CEM cells; assay: Antimetabolic activity assay, [5-3H]uridine incorporation (RNA synthesis), CEM; format: cell-based; details: Homo sapiens, CCRF-CEM, incorporation into TCA-insoluble material
Procedure: as §3

[23] = system: RNA synthesis in Raji cells; assay: Antimetabolic activity assay, [5-3H]uridine incorporation (RNA synthesis), Raji; format: cell-based; details: Homo sapiens, incorporation into TCA-insoluble material
Procedure: [The procedure below names another cell line; the source lists this cell line under the same test.] as §3

[24] = system: protein synthesis in CEM cells; assay: Antimetabolic activity assay, [4,5-3H]leucine incorporation (protein synthesis), CEM; format: cell-based; details: Homo sapiens, CCRF-CEM, incorporation into TCA-insoluble material
Procedure: as §3

[25] = system: protein synthesis in Raji cells; assay: Antimetabolic activity assay, [4,5-3H]leucine incorporation (protein synthesis), Raji; format: cell-based; details: Homo sapiens, incorporation into TCA-insoluble material
Procedure: [The procedure below names another cell line; the source lists this cell line under the same test.] as §3

[26] = system: broad variety of tumor cell lines; assay: Cytostatic assays, summary over the panel of cell lines (Tables 2-4); format: cell-based
Procedure: as §2

[27] = system: OST TK- osteosarcoma cells; assay: Cytostatic assay, OST TK-; format: cell-based; details: Homo sapiens; Table 3
Procedure: as §2

[28] = Table 2, read-out: Cytostatic activity (μM) CEM

SMILES: COc1ccc(OC)c(CCc2cc(C#N)c(N)s2)c1 [TR589, 2-Amino-5-[2-(2,5-dimethoxy-phenyl)-ethyl]-thiophene-3-carbonitrile]
- IC50 (CEM cells; Table 1a, read-out: IC50 μM (CEM)): 0.015 µM
- IC50 (CEM cells; [28]): 0.015 µM
- IC50 (Molt4/C8 cells): 0.058 ± 0.056 µM
- IC50 (Sup T1 cells): 0.017 ± 0.012 µM
- IC50 (MT-2 cells): 0.027 ± 0.001 µM
- IC50 (C8166 cells): 0.021 ± 0.009 µM
- IC50 (HUT-78 cells): 0.062 ± 0.039 µM
- IC50 (MT-4 cells): 0.086 ± 0.048 µM
- IC50 [1]: 0.024 ± 0.004 µM
- IC50 [2]: 0.036 ± 0.001 µM
- IC50 [3]: 0.022 ± 0.003 µM
- IC50 [4]: 0.063 ± 0.013 µM
- IC50 (L1210 cells): 0.064 ± 0.025 µM
- IC50 [5]: 0.026 ± 0.0014 µM
- IC50 [6]: 0.05 ± 0.046 µM
- IC50 [7]: 0.13 ± 0.06 µM
- IC50 [8]: 0.016 ± 0.001 µM
- IC50 [9]: 0.042 ± 0.004 µM
- IC50 [10]: < 0.032 µM
- IC50 [11]: 0.046 ± 0.012 µM
- IC50 (U87 glioma cells): 0.038 ± 0.008 µM
- IC50 [12]: < 0.032 µM
- IC50 [13]: < 0.032 µM
- IC50 [14]: < 0.032 µM
- IC50 (BPH-1 (UZ)): < 0.032 µM
- IC50 [15]: 0.061 ± 0.016 µM
- IC50 [16]: < 0.032 µM
- IC50 [17]: < 0.032 µM
- IC50 [18]: < 0.032 µM
- IC50 [19]: < 0.032 µM
- IC50 (PLC/PRF/5 hepatoma cells): 0.041 ± 0.013 µM
- IC50 (HepG2C3A hepatoma cells): 0.29 ± 0.18 µM
- IC50 (Huh-7 hepatoma cells): < 0.16 µM
- IC50 [20]: > 100 µM
- IC50 [21]: ≥ 100 µM
- IC50 [22]: 44 ± 11 µM
- IC50 [23]: 90 ± 14 µM
- IC50 [24]: 20 µM
- IC50 [25]: 39 ± 36 µM
- fold more cytostatic than the corresponding -COOEt-containing compound 16b [26]: 50 fold
- IC50 ([26]; range over the cell lines of Tables 2-4, read-out: IC50 range (antiproliferative activity)): 0.02 to 0.13 µM

SMILES: CCOC(=O)c1c(N)sc(CCc2cc(OC)ccc2OC)c1C(=O)OCC [TR592, 2-Amino-5-[2-(2,5-dimethoxy-phenyl)-ethyl]-thiophene-3,4-dicarboxylic acid diethyl ester]
- IC50 (CEM cells; [28]): 20 ± 6 µM
- IC50 (Molt4/C8 cells): 24 ± 17 µM
- IC50 (Sup T1 cells): 4.1 ± 0.4 µM
- IC50 (MT-2 cells): 8.1 ± 1.2 µM
- IC50 (C8166 cells): 25 ± 3.5 µM
- IC50 (HUT-78 cells): 26 ± 3.5 µM
- IC50 (MT-4 cells): 36 ± 16 µM
- IC50 [1]: 17 ± 0.7 µM
- IC50 [2]: 20 ± 15 µM
- IC50 [3]: 20 ± 1.4 µM
- IC50 [4]: 41 ± 7.1 µM
- IC50 [27]: 17 ± 5.7 µM
- IC50 [5]: 27 ± 19 µM
- IC50 [6]: 33 ± 9 µM
- IC50 [7]: 11 ± 3 µM
- IC50 [8]: 24 ± 0.7 µM
- IC50 [9]: 42 ± 2.1 µM
- IC50 [10]: 30 ± 7.1 µM
- IC50 [11]: 43 ± 4.2 µM
- IC50 (U87 glioma cells): 39 ± 2.8 µM
- IC50 [12]: 35 ± 6.4 µM
- IC50 [13]: 31 ± 4.2 µM
- IC50 [14]: 12 ± 2.1 µM
- IC50 (BPH-1 (UZ)): 28 ± 3.5 µM
- IC50 [15]: 18 ± 2.1 µM
- IC50 [16]: 8.5 ± 0.85 µM
- IC50 [17]: 4.1 ± 3.6 µM
- IC50 [18]: 31 ± 0.71 µM
- IC50 [19]: 14 ± 8.3 µM
- IC50 (PLC/PRF/5 hepatoma cells): 25 µM
- IC50 (HepG2C3A hepatoma cells): 34 ± 12 µM
- IC50 (Huh-7 hepatoma cells): 34 ± 14 µM
- IC50 [20]: 17 ± 8 µM
- IC50 [21]: 25 ± 16 µM
- IC50 [22]: 31 ± 22 µM
- IC50 [23]: 31 ± 19 µM
- IC50 [24]: 17 µM
- IC50 [25]: 23 ± 7 µM
